Reference: PubChem BioAssay (NCI)
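A five-concentration, 48-hour dose response in 96-well plates underlies each endpoint, interpolated linearly between surrounding concentrations. The concentration for 50% growth inhibition is given as GI50. TGI: total growth inhibition.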

Columns and labels:
Assay in all cases: NCI anticancer screen, dose series, 48 h
UACC-62 melanoma = system: UACC-62 melanoma
HT29 colon = system: HT29 colon
KM12 colon = system: KM12 colon
NCI-H522 lung = system: NCI-H522 lung
U251 CNS = system: U251 CNS
SK-OV-3 ovarian = system: SK-OV-3 ovarian
TK-10 renal = system: TK-10 renal
SNB-75 CNS = system: SNB-75 CNS
OVCAR-3 ovarian = system: OVCAR-3 ovarian
K-562 leukemia = system: K-562 leukemia

SMILES | GI50 (UACC-62 melanoma) | TGI (UACC-62 melanoma) | GI50 (HT29 colon) | TGI (HT29 colon) | GI50 (KM12 colon) | TGI (KM12 colon) | GI50 (NCI-H522 lung) | TGI (NCI-H522 lung) | GI50 (U251 CNS) | TGI (U251 CNS) | GI50 (SK-OV-3 ovarian) | TGI (SK-OV-3 ovarian) | GI50 (TK-10 renal) | TGI (TK-10 renal) | TGI (SNB-75 CNS) | TGI (OVCAR-3 ovarian) | TGI (K-562 leukemia) | GI50 (SNB-75 CNS) | GI50 (K-562 leukemia) | GI50 (OVCAR-3 ovarian)
O=C(Nc1cccc(-n2cc(-c3ccncc3)c(-c3ccc(O)c(Cl)c3)n2)c1)Nc1ccc(Cl)c(Cl)c1 | 1.99 µM | 4.94 µM | 3.42 µM | 39 µM | 1.4 µM | 3.11 µM | 1.3 µM | 3.76 µM | 1.25 µM | 5.61 µM | 3.43 µM | > 100 µM | 2.83 µM | 7.56 µM |  |  |  |  |  | 
CCCCOCCOCCOC1=C(Cl)C(=O)c2c(O)ccc(O)c2C1=O |  | 3.47 µM |  | 1.25 µM |  | 3.6 µM |  |  |  | 6.72 µM |  | 14.8 µM |  | 2.63 µM | 1.25 µM | 2.08 µM |  |  |  | 
C1CCN2CC3CONC3C2C1 (stereo not given) |  | > 100 µM |  | > 100 µM |  | > 100 µM |  | > 100 µM |  | > 100 µM |  |  |  | > 100 µM | > 100 µM | > 100 µM | > 100 µM |  |  | 
NC(=O)C(=O)Cc1nc2ccccc2s1 |  |  |  | > 100 µM |  | > 100 µM |  | > 100 µM |  | > 100 µM |  | > 100 µM |  | > 100 µM | > 100 µM | > 100 µM | > 100 µM |  |  | 
CON(C)C(=O)C(C)NC(=O)OC(C)(C)C (stereo not given) |  | > 100 µM |  | > 100 µM |  | > 100 µM |  |  |  | > 100 µM |  | > 100 µM |  | > 100 µM | > 100 µM | > 100 µM | > 100 µM |  |  | 
CC(=O)c1sc2c(c1O)c(=O)n(-c1ccccc1)c(=S)n2-c1ccccc1 |  | > 100 µM |  | > 100 µM |  | > 100 µM |  | > 100 µM |  | > 100 µM |  |  |  | > 100 µM | > 100 µM | > 100 µM | > 100 µM |  |  | 
CC1(C)N=C(N)N=C(N)N1c1ccc(OCCCCNC(=O)Nc2cccc(S(=O)(=O)F)c2)c(Cl)c1 | 0.491 µM | > 100 µM | 0.611 µM | > 100 µM | 2.64 µM | > 100 µM | 1.83 µM | 69.7 µM | 0.674 µM | > 100 µM | > 100 µM | > 100 µM |  |  | 48.7 µM | > 100 µM | > 100 µM | 2.98 µM | 0.351 µM | 6.89 µM
COc1ccc2c3c(c(C(=O)O)oc13)C(CCC(=O)O)CC2 (stereo not given) |  | > 100 µM |  | > 100 µM |  |  |  |  |  | > 100 µM |  | > 100 µM |  | > 100 µM | > 100 µM | > 100 µM |  |  |  | 
O=C(CN(/C=C/C(=O)C(F)(F)F)c1ccccc1)c1ccc(F)cc1 | 13 µM | 26.9 µM | 38.9 µM | > 100 µM | 24.9 µM | 69.9 µM | 19.2 µM | 46.5 µM | 22.9 µM | 69.8 µM | 55 µM | > 100 µM | 33 µM | > 100 µM |  | 68.7 µM | 52.6 µM |  | 18.1 µM | 25.8 µM
COC(=O)c1cc2ccccc2c2nc3ccccc3c(Cl)c12 |  | > 100 µM |  | > 100 µM |  | > 100 µM |  | > 100 µM |  | > 100 µM |  |  |  | > 100 µM | > 100 µM | > 100 µM | > 100 µM |  |  | 
